PubChem BioAssay AID1996
In brackets after ≈: the same amount, converted by molar mass.

Details: buffer; pH 7.4; 200.0 µM

Q: For COC(=O)CN1C(=O)N/C(=C/c2ccc(OC)c(C)c2OC)C1=O, which solubility kinetic is on record?
A: 4 µg/mL (≈ 12 µM)

Q: For O=C(CNC(=O)c1ccc(Br)o1)NC12CC3CC(CC(C3)C1)C2, which solubility kinetic is on record?
A: 50.5 µg/mL (≈ 132 µM)

Q: With CCc1ccccc1NC(=O)c1cc(-c2ccco2)on1 as the compound, how does the solubility kinetic read?
A: 3.1 µg/mL (≈ 11 µM)

Q: With Cc1cc(C)c(C(=O)Nc2cccc(F)c2)c(Cl)n1 as the compound, how does the solubility kinetic read?
A: > 41.8 µg/mL

Q: Which solubility kinetic does the source give for COc1ccccc1CN1CCN(Cc2nc(-c3ccccc3)no2)CC1 here?
A: 50.1 µg/mL (≈ 137 µM)

Q: Which solubility kinetic does the source give for Cc1cccc(CSc2nnc([C@@H]3CCCN3)o2)c1.Cl here?
A: > 46.8 µg/mL

Q: With CCCn1c(=O)c2c(nc3n2CCS3)n(C)c1=O as the compound, how does the solubility kinetic read?
A: > 39.9 µg/mL

Q: Which solubility kinetic does the source give for O=C(CS(=O)c1ccc(Br)cc1)N1CCOCC1 (centres undefined) here?
A: 49.4 µg/mL (≈ 149 µM)

Q: For O=C(O)c1cccnc1SCc1cn2cc(Cl)ccc2n1, which solubility kinetic is on record?
A: > 48 µg/mL

Q: With Cc1cc(C)cc(OCC(=O)Nc2ccc(CN3CCCCC3)cc2)c1 as the compound, how does the solubility kinetic read?
A: 49.9 µg/mL (≈ 142 µM)

Q: Which solubility kinetic does the source give for COc1ccc(S(=O)(=O)N2CCN(c3cnccn3)CC2)cc1 here?
A: > 50.2 µg/mL

Q: With O=C(Cc1ccccc1)NCc1ccncc1 as the compound, how does the solubility kinetic read?
A: 28.2 µg/mL (≈ 125 µM)

Q: With Cc1ccc(C(=O)CCC(=O)Nc2ncccc2C)cc1 as the compound, how does the solubility kinetic read?
A: > 42.4 µg/mL

Q: With CC(NC(=O)c1ccco1)C(=O)OC(C)C(=O)NCc1ccccc1 (centres undefined) as the compound, how does the solubility kinetic read?
A: 46.3 µg/mL (≈ 134 µM)

Q: For N#Cc1ccc(N=c2ssnc2Cl)cc1, which solubility kinetic is on record?
A: 4.2 µg/mL (≈ 16.6 µM)

Q: For CC1CCN(C(=O)CN(Cc2ccc(Cl)cc2)S(C)(=O)=O)CC1, which solubility kinetic is on record?
A: 52.8 µg/mL (≈ 147 µM)

Q: For O=C(CNC(=O)c1cccs1)NCC(=O)OCC(=O)c1ccccc1, which solubility kinetic is on record?
A: > 54.1 µg/mL

Q: Which solubility kinetic does the source give for Cc1ccc(C(=O)NCC(=O)OCC(=O)NCC(F)(F)F)cc1 here?
A: 47.1 µg/mL (≈ 142 µM)

Q: Which solubility kinetic does the source give for COc1ccccc1CNC(=O)COC(=O)c1cc(C)oc1C here?
A: 4.3 µg/mL (≈ 13.6 µM)

Q: With O=C(Nc1ccc2c(c1)CCC2)c1ncoc1-c1ccccc1F as the compound, how does the solubility kinetic read?
A: < 0.3 µg/mL

Q: For COc1ccc(CCN2C(=O)CSC2c2ccc(F)cc2)cc1 (centres undefined), which solubility kinetic is on record?
A: 34.4 µg/mL (≈ 104 µM)

Q: Which solubility kinetic does the source give for O=C(N[C@@H](Cc1c[nH]c2ccccc12)C(=O)O)c1ccc(Cl)cc1 here?
A: > 51.4 µg/mL

Q: With O=C(Nc1cccc(S(=O)(=O)N2CCCC2)c1)c1ccc(Cl)nc1 as the compound, how does the solubility kinetic read?
A: 15.6 µg/mL (≈ 42.6 µM)

Q: Which solubility kinetic does the source give for COc1ccc(OCC(=O)Nc2ccc(S(=O)(=O)N(C)c3ccccc3)cc2)cc1 here?
A: 1.8 µg/mL (≈ 4.22 µM)

Q: With CC(=O)c1ccc(NC(=O)C[n+]2ccccc2)cc1.[Cl-] as the compound, how does the solubility kinetic read?
A: > 43.6 µg/mL

Q: With CCN(CC)S(=O)(=O)c1ccc(NC(=O)c2cc(=O)[nH]c3ccccc23)cc1 as the compound, how does the solubility kinetic read?
A: 3.9 µg/mL (≈ 9.76 µM)

Q: For CC(C)COc1ccc(C(=O)OCC(=O)NCc2cccs2)cc1, which solubility kinetic is on record?
A: 1.1 µg/mL (≈ 3.17 µM)

Q: With CCCCN(C(=O)C1CCC1)c1c(N)n(CCC)c(=O)[nH]c1=O as the compound, how does the solubility kinetic read?
A: > 48.4 µg/mL

Q: Which solubility kinetic does the source give for CC(Sc1ccc([N+](=O)[O-])cn1)C(=O)Nc1nccs1 (centres undefined) here?
A: 5 µg/mL (≈ 16.1 µM)

Q: For Cc1cccn2c(=O)c3cc(C(=O)NCC(C)C)sc3nc12, which solubility kinetic is on record?
A: 1.2 µg/mL (≈ 3.8 µM)

Q: Which solubility kinetic does the source give for O=C(COC(=O)c1cccs1)Nc1ccc(Cl)cn1 here?
A: 3.1 µg/mL (≈ 10.4 µM)

Q: With Nc1nnc(SCC(=O)Nc2cccnc2Cl)s1 as the compound, how does the solubility kinetic read?
A: > 45.3 µg/mL

Q: For Cc1cccc(C)c1NC(=O)COC(=O)C1C2CC3OC(=O)C1C3C2 (centres undefined), which solubility kinetic is on record?
A: > 51.5 µg/mL

Q: Which solubility kinetic does the source give for CC(=O)Nc1sc2c(c1C#N)CCC2 here?
A: > 30.9 µg/mL

Q: For Cc1ccccc1NC(=O)c1cc2ccccc2o1, which solubility kinetic is on record?
A: 33.7 µg/mL (≈ 134 µM)

Q: For NC(=O)c1cccnc1OCC(F)(F)F, which solubility kinetic is on record?
A: > 33 µg/mL

Q: Which solubility kinetic does the source give for S=C(NCc1ccccc1)Nc1ccc2ccccc2c1 here?
A: 0.9 µg/mL (≈ 3.08 µM)

Q: With COc1ccc(CCNS(=O)(=O)c2cccc([N+](=O)[O-])c2)cc1 as the compound, how does the solubility kinetic read?
A: 42.8 µg/mL (≈ 127 µM)

Q: Which solubility kinetic does the source give for Cc1occc1C(=O)Nc1ccccc1C#N here?
A: > 33.9 µg/mL

Q: With O=C(NCC(=O)N1CCOCC1)c1ccc(Br)cc1 as the compound, how does the solubility kinetic read?
A: > 49.1 µg/mL

Q: Which solubility kinetic does the source give for CC(C)(C)c1csc(NC(=O)CS(=O)(=O)c2ccccc2)n1 here?
A: 50.6 µg/mL (≈ 150 µM)

Q: With O=C(NC(=S)Nc1cccc2ncccc12)c1ccccc1 as the compound, how does the solubility kinetic read?
A: 2.7 µg/mL (≈ 8.78 µM)

Q: Which solubility kinetic does the source give for Cc1ccc(C)n1CCN1CCN(S(=O)(=O)c2ccc(F)cc2F)CC1 here?
A: 26.1 µg/mL (≈ 68.1 µM)

Q: With CCc1noc(C)c1C(=O)N(CCOC)c1c(N)n(CC(C)C)c(=O)[nH]c1=O as the compound, how does the solubility kinetic read?
A: 55.6 µg/mL (≈ 141 µM)

Q: Which solubility kinetic does the source give for CC1CC1C(=O)OCC(=O)c1c(N)n(C)c(=O)n(C)c1=O (centres undefined) here?
A: > 44.3 µg/mL

Q: With Cn1c(=O)c2c(O)c(C=Nc3ccc(F)cc3)c(=O)n(C)c2n(C)c1=O as the compound, how does the solubility kinetic read?
A: 32.6 µg/mL (≈ 91 µM)

Q: For O=C(COC(=O)Cc1ccccc1)Nc1cccnc1Cl, which solubility kinetic is on record?
A: > 45.7 µg/mL

Q: Which solubility kinetic does the source give for Cn1c(=O)n(Cc2ccccc2)c(=O)c2c1nc1n2CCN1Cc1ccco1 here?
A: 51.8 µg/mL (≈ 137 µM)

Q: For Cc1ccc(NC(=O)C23CCC(C)(C(=O)[C@H]2Br)C3(C)C)cc1 (some centres undefined), which solubility kinetic is on record?
A: 43.2 µg/mL (≈ 119 µM)

Q: For Cc1cc(F)ccc1S(=O)(=O)Nc1ccc(C(=O)N2CCCCC2)cc1, which solubility kinetic is on record?
A: > 56.5 µg/mL

Q: With CCOc1ccc(S(=O)(=O)Nc2nccs2)cc1 as the compound, how does the solubility kinetic read?
A: > 42.7 µg/mL

Q: For CCOC(=O)c1c(C)n(Cc2ccc(F)cc2)c2ccc(O)cc12, which solubility kinetic is on record?
A: < 0.7 µg/mL

Q: With O=C(NCCc1ccccc1)c1cccc(N2C(=O)C3CC=CCC3C2=O)c1 (centres undefined) as the compound, how does the solubility kinetic read?
A: 47.2 µg/mL (≈ 126 µM)

Q: With Cc1nc(Nc2nc3ccccc3o2)nc(C)c1C as the compound, how does the solubility kinetic read?
A: 15.8 µg/mL (≈ 62.1 µM)

Q: With Cc1nc2ccccc2c2oc(C(=O)N3CCC(C)CC3)cc12 as the compound, how does the solubility kinetic read?
A: > 46.3 µg/mL

Q: For COC(=O)c1sccc1NC(=O)c1ccccc1C(=O)O, which solubility kinetic is on record?
A: 39.8 µg/mL (≈ 130 µM)

Q: With COc1ccc(C2NC(=O)c3ccccc3N2)cc1 (centres undefined) as the compound, how does the solubility kinetic read?
A: 33.2 µg/mL (≈ 131 µM)

Q: With COC(=O)c1ccc(N2CCS(=O)(=O)CC2)cc1 as the compound, how does the solubility kinetic read?
A: > 40.4 µg/mL

Q: For N#Cc1c2ccc(OCC(N)=O)cc2n2ccccc12, which solubility kinetic is on record?
A: 1.95 µg/mL (≈ 7.35 µM)
